Reference: DBAASP
≈ marks a conversion by molar mass, not a printed value. Where “and” joins values, the source holds several entries; their conditions need not be identical. Equal entries are not always repeated.

Columns and labels:
Test in all cases: ≥ marks a high value that may be exact or a test limit, other limits are often not marked, values filed in µg/mL are converted to µM
[1] = test system: Acinetobacter baumannii ATCC 19606
[2] = test system: Escherichia coli ATCC 25922
Escherichia coli BW25113 = test system: Escherichia coli BW25113
[3] = test system: Pseudomonas aeruginosa ATCC 27853
[4] = test system: Staphylococcus aureus ATCC 25923
[5] = test system: Klebsiella pneumoniae ATCC 700603
[6] = test system: Escherichia coli BW25113 ΔsbmA
[7] = test system: Escherichia coli DH5alpha
[8] = test system: Zymomonas mobilis ATCC 10988
[9] = test system: Staphylococcus epidermidis ATCC 12228
[10] = test system: Acinetobacter baumannii 97830
Escherichia coli 804 = test system: Escherichia coli 804
Staphylococcus aureus 75 = test system: Staphylococcus aureus 75
[11] = test system: Bacillus subtilis ATCC 23857
[12] = test system: Staphylococcus aureus 113
[13] = test system: Pseudomonas aeruginosa 50
Escherichia coli 780 = test system: Escherichia coli 780
[14] = test system: Pseudomonas aeruginosa ATCC 9027
[15] = test system: Pseudomonas aeruginosa 73
[16] = test system: Staphylococcus aureus ATCC 29213
[17] = test system: Acinetobacter baumannii 9931
[18] = test system: Pseudomonas aeruginosa H374
[19] = test system: Pseudomonas aeruginosa Z61
[20] = test system: Burkholderia cepacia ATCC 25416
[21] = test system: Pseudomonas aeruginosa H547
[22] = test system: Pseudomonas aeruginosa H744
[23] = test system: Salmonella enterica subsp. enterica serovar Typhimurium ATCC 14028s
Escherichia coli UB1005 = test system: Escherichia coli UB1005
[24] = test system: Pseudomonas aeruginosa K799
Cryptococcus neoformans = test system: Cryptococcus neoformans
Escherichia coli = test system: Escherichia coli
[25] = test system: Klebsiella pneumoniae ATCC 13883
Candida tropicalis = test system: Candida tropicalis
Streptococcus equinus = test system: Streptococcus equinus
[26] = test system: Salmonella enterica serovar Typhimurium
[27] = test system: Serratia marcescens ATCC 8100
Bacillus megaterium Bm11 = test system: Bacillus megaterium Bm11
[28] = test system: Cryptococcus neoformans ATCC 90113
Pseudomonas aeruginosa = test system: Pseudomonas aeruginosa
Klebsiella pneumoniae = test system: Klebsiella pneumoniae
Candida albicans = test system: Candida albicans
Escherichia coli ML-35 = test system: Escherichia coli ML-35
[29] = test system: Pseudomonas aeruginosa ATCC 10145
Candida parapsilosis = test system: Candida parapsilosis
[30] = test system: Salmonella enterica subsp. enterica serovar Typhimurium ATCC 14028
[31] = test system: Salmonella enterica subsp. enterica serovar Enteritidis
[32] = test system: Cryptococcus neoformans ATCC 52817

CC[C@H](C)[C@H](NC(=O)[C@H](CCCN=C(N)N)NC(=O)[C@@H](N)Cc1c[nH]c2ccccc12)C(=O)N[C@@H](CCCN=C(N)N)C(=O)N1CCC[C@H]1C(=O)N[C@@H](CCCN=C(N)N)C(=O)N1CCC[C@H]1C(=O)N1CCC[C@H]1C(=O)N[C@@H](CCCN=C(N)N)C(=O)N[C@@H](CC(C)C)C(=O)N1CCC[C@H]1C(=O)N[C@@H](CCCN=C(N)N)C(=O)N1CCC[C@H]1C(=O)N[C@@H](CCCN=C(N)N)C(=O)N1CCC[C@H]1C(=O)N[C@@H](CCCN=C(N)N)C(=O)O [WRIRPRPPRLPRPRPR]
MIC [1]: 32 µM (≈ 67.4 µg/mL)
MIC [2]: 1 µM (≈ 2.11 µg/mL)
MIC (Escherichia coli BW25113): 1 µM (≈ 2.11 µg/mL)
MIC [3]: > 64 µM
MIC [4]: > 64 µM
MIC [5]: 16 µM (≈ 33.7 µg/mL)
MIC [6]: 12 µM (≈ 25.3 µg/mL)

CC[C@H](C)[C@H](NC(=O)[C@H](CCCN=C(N)N)NC(=O)[C@H](CCC(N)=O)NC(=O)[C@@H](NC(=O)[C@@H](NC(=O)[C@H](CCCN=C(N)N)NC(=O)[C@H](CCCCN)NC(=O)[C@@H](N)CC(C)C)[C@@H](C)CC)C(C)C)C(=O)N[C@@H](CCCCN)C(=O)N[C@@H](CC(=O)O)C(=O)N[C@@H](Cc1ccccc1)C(=O)N[C@@H](CC(C)C)C(=O)N[C@@H](CCCN=C(N)N)C(N)=O [LKRIVQRIKDFLR]
MIC [7]: ≥ 119 µM
MIC [8]: ≥ 119 µM

C[C@H](N)C(=O)N[C@@H](CCCN=C(N)N)C(=O)N[C@@H](CCCN=C(N)N)C(=O)N[C@@H](Cc1c[nH]c2ccccc12)C(=O)N[C@@H](Cc1c[nH]c2ccccc12)C(=O)N[C@@H](Cc1c[nH]c2ccccc12)C(=O)N[C@@H](CCCN=C(N)N)C(=O)N[C@@H](CCCN=C(N)N)C(=O)N[C@@H](C)C(N)=O [ARRWWWRRA]
MIC [1]: 128 µM (≈ 172 µg/mL)
MIC [9]: 8 µM (≈ 10.7 µg/mL)
MIC [10]: ≥ 128 µM
MIC (Escherichia coli 804): ≥ 64 µM
MIC (Staphylococcus aureus 75): 16 µM (≈ 21.5 µg/mL)
MIC [11]: 8 µM (≈ 10.7 µg/mL)
MIC [12]: 16 µM (≈ 21.5 µg/mL)
MIC [3]: 128 µM (≈ 172 µg/mL)
MIC [13]: ≥ 128 µM
MIC (Escherichia coli 780): ≥ 32 µM
MIC [14]: 128 µM (≈ 172 µg/mL)
MIC [15]: ≥ 128 µM
MIC [16]: 32 µM (≈ 43 µg/mL)
MIC [17]: ≥ 64 µM
MIC [5]: > 128 µM

CC[C@H](C)[C@H](NC(=O)[C@H](CC(C)C)NC(=O)[C@@H]1CCCN1C(=O)[C@H](CCCCN)NC(=O)[C@H](C)NC(=O)[C@@H](NC(=O)[C@@H](NC(=O)[C@@H](NC(=O)[C@@H](NC(=O)[C@H](CCCCN)NC(=O)[C@H](CCCCN)NC(=O)[C@H](CC(C)C)NC(=O)[C@@H](NC(=O)[C@H](CO)NC(=O)[C@@H](NC(=O)[C@H](CC(C)C)NC(=O)[C@H](CCCCN)NC(=O)[C@H](CCCCN)NC(=O)[C@@H](NC(=O)[C@H](Cc1ccccc1)NC(=O)[C@H](CO)NC(=O)[C@H](CCCCN)NC(=O)[C@H](Cc1c[nH]c2ccccc12)NC(=O)[C@@H](N)CCCCN)[C@@H](C)CC)[C@@H](C)O)C(C)C)C(C)C)C(C)C)[C@@H](C)O)[C@@H](C)O)C(=O)N[C@@H](CO)C(=O)N[C@@H](CO)C(=O)O [KWKSFIKKLTSVLKKVVTTAKPLISS]
MIC [18]: 2.73 µM (≈ 8 µg/mL)
MIC [19]: 1.02 µM (≈ 3 µg/mL)
MIC [20]: 21.8 µM (≈ 64 µg/mL)
MIC [21]: 2.73 µM (≈ 8 µg/mL)
MIC [22]: 1.36 µM (≈ 4 µg/mL)
MIC [3]: 4 µM (≈ 11.7 µg/mL)
MIC [23]: 1.02 µM (≈ 3 µg/mL)
MIC (Escherichia coli UB1005): 0.682 µM (≈ 2 µg/mL)
MIC [24]: 1.71 µM (≈ 5 µg/mL)

CC[C@H](C)[C@H](NC(=O)[C@H](CCCCN)NC(=O)[C@H](CCCN=C(N)N)NC(=O)[C@H](CCCN=C(N)N)NC(=O)[C@@H]1CCCN1C(=O)[C@H](CC(C)C)NC(=O)[C@H](CC(C)C)NC(=O)[C@@H](NC(=O)[C@H](CCCN=C(N)N)NC(=O)[C@H](CCSC)NC(=O)[C@H](CCCN=C(N)N)NC(=O)[C@H](CC(C)C)NC(=O)[C@H](Cc1ccccc1)NC(=O)[C@H](CO)NC(=O)[C@H](CCCCN)NC(=O)[C@H](C)NC(=O)[C@H](CC(C)C)NC(=O)[C@H](CCCN=C(N)N)NC(=O)CNC(=O)[C@H](Cc1ccccc1)NC(=O)[C@H](CCCN=C(N)N)NC(=O)[C@@H](N)CCCCN)[C@@H](C)CC)C(=O)N[C@@H](CC(C)C)C(=O)N[C@@H](CC(C)C)C(=O)N[C@@H](C)C(=O)N[C@@H](CO)C(=O)O [KRFGRLAKSFLRMRILLPRRKILLAS]
MIC [9]: 1.91 µM (≈ 6 µg/mL)
MIC (Cryptococcus neoformans): 1.91 µM and 3.98 µM
MIC [2]: 1.1 µM (≈ 3.46 µg/mL)
MIC (Escherichia coli): 1.27 µM (≈ 4 µg/mL)
MIC [25]: 0.78 µM (≈ 2.45 µg/mL)
MIC (Candida tropicalis): 31.8 µM (≈ 100 µg/mL)
MIC (Streptococcus equinus): 7.96 µM (≈ 25 µg/mL)
MIC [3]: 3.98 µM (≈ 12.5 µg/mL)
MIC [4]: 7.96 µM (≈ 25 µg/mL)
MIC [26]: 0.9 µM (≈ 2.83 µg/mL)
MIC [27]: 3.98 µM (≈ 12.5 µg/mL)
MIC (Bacillus megaterium Bm11): 3.98 µM (≈ 12.5 µg/mL)
MIC [28]: 3.98 µM and 1.91 µM
MIC (Pseudomonas aeruginosa): 0.9 µM (≈ 2.83 µg/mL)
MIC (Klebsiella pneumoniae): 1.91 µM and 0.9 µM
MIC (Candida albicans): > 31.8 µM
MIC (Escherichia coli ML-35): 0.955 µM (≈ 3 µg/mL)
MIC [29]: 1.27 µM (≈ 4 µg/mL)
MIC (Candida parapsilosis): 31.8 µM (≈ 100 µg/mL)
MIC [30]: 1.91 µM and 0.637 µM
MIC [16]: > 10.2 µM
MIC [31]: 1.91 µM (≈ 6 µg/mL)
MIC [32]: 3.98 µM and 1.91 µM
